Test results from patent EP0034120A1, “Derivatives of phenoxy-phenoxy-carboxylic acids” (CIBA-GEIGY AG, priority 1980, dated 1981).

Experiments:
Type in all cases: in vivo
Design in all cases: key: 1 Pflanze abgestorben; 2-4 schwere Schädigung; 3: 2-4 schwere Schädigung; 2-4 schwere Schädigung; 5, 6 mittlere Schäden; 5, 6 mittlere Schäden; 7, 8 leichte Schäden; 7, 8 leichte Schäden; 9 Pflanze gedeiht normal, wie unbehandelte Kontrollpflanze
[1] = tested on: Reis; test: Herbicidal action, pre-emergent application (greenhouse); details: after 3 weeks
Method: (§1) wurde durchfolgende Versuche ermittelt: Herbizide Wirkung bei Applikation der Wirkstoffe vor dem Auflaufen der Pflanzen (pre-emergent) Im Gewächshaus werden Pflanzensamen in Blumentöpfe von ca. 11 cm Durchmesser gesät. […] Die Töpfe werden dann im Gewächshaus unter optimalen Bedingungen für das Pflanzenwachstum, regelmässiges Bewässern, einer Temperatur von 22-25°C und 50-70% relativer Luftfeuchtigkeit gehalten. Der Versuch wird nach 3 Wochen abgebrochen und der Zustand der Pflanzen gemäss dem folgenden EWRC (European Weed Research Councel) Bewertungsschema registriert: • 1 Pflanze abgestorben • 2-4 schwere Schädigung • 5, 6 mittlere Schäden • 7, 8 leichte Schäden • 9 Pflanze gedeiht normal, wie unbehandelte Kontrollpflanze.

[2] = tested on: Weizen; test: as above; details: after 3 weeks
Method: as §1

[3] = tested on: abutilon sp; test: as above; details: after 3 weeks
Method: as §1

[4] = tested on: amarantus retrofl.; test: as above; details: after 3 weeks
Method: as §1

[5] = tested on: beta vulgaris; test: as above; details: after 3 weeks
Method: as §1

[6] = tested on: chenopodium sp.; test: as above; details: after 3 weeks
Method: as §1

[7] = tested on: chrysanthemum l.; test: as above; details: after 3 weeks
Method: as §1

[8] = tested on: sinapis alba; test: as above; details: after 3 weeks
Method: as §1

[9] = tested on: viola tricolor; test: as above; details: after 3 weeks
Method: as §1

[10] = tested on: Ammania indica; test: Selective herbicidal action in rice, post-emergence (flooded trays); details: applied into paddy water, evaluated after 4 weeks
Method: (§2) Reispflänzchen, welche 25 Tage alt sind, wurden im Gewächshaus in grosse rechtackige Eternitschalen vergflanzt. Zwischen die Reiben der Reispfianzon wurden dann Samen der in Reiskulturen vorkommanden Unkräuter Echinochloa crus galli, Cyperus difformis, ? und Rotala gesät. Die Schalen wurden gut bewässert und bei einer Temperatur von ca. 25°C und hoher Luftfeuchtigkeit gehalten. Nach 12 Tagen, wenn die Unkräuter aufgelaufen sind und das 2-3 Blattstadium erreicht haben, wurde die Erde in der Schale mit einer 2,5 cm hohen Schicht Wasser bedeckt. Die Verbindung No. 2 wurde denn als Emulsionskonzentrat mittels einer-Pipette zwischen die Pflanzenreihen appliziert, wobei man das Emulsionskonzentrat so verdünnte und auftrug, dass es einer Applikationsmenge im Feld von 2 und 1 kg Wirkstoff pro Hektar entsprach. Der Versuch wurde nach 4 Wochen ausgewertat.

[11] = tested on: Cyperus difformis; test: as above; details: applied into paddy water, evaluated after 4 weeks
Method: as §2

[12] = tested on: Echinochloa crus galli; test: as above; details: applied into paddy water, evaluated after 4 weeks
Method: as §2

[13] = tested on: Reis; test: as above; details: applied as emulsion concentrate into paddy water, evaluated after 4 weeks
Method: as §2

[14] = tested on: Rotala indica; test: as above; details: applied into paddy water, evaluated after 4 weeks
Method: as §2

CCOC(=O)CCC(C)Oc1cc(Oc2ccc(C(F)(F)F)cc2Cl)ccc1Cl (stereo not shown) [Verbindung No. 2, 4-[3'-(2"-Chlor-4-trifluormethylphenoxy)-6'-chlorphenoxy]-valeriansäure-äthylester]
Zustand der Pflanzen (EWRC Bewertungsschema) ([1]; Aufwandmenge 2 kg/ha): 9
Zustand der Pflanzen (EWRC Bewertungsschema) ([1]; Aufwandmenge 4 kg/ha): 9
Zustand der Pflanzen (EWRC Bewertungsschema) ([2]; Aufwandmenge 2 kg/ha): 9
Zustand der Pflanzen (EWRC Bewertungsschema) ([2]; Aufwandmenge 4 kg/ha): 9
Zustand der Pflanzen (EWRC Bewertungsschema) ([3]; Aufwandmenge 2 kg/ha): 5
Zustand der Pflanzen (EWRC Bewertungsschema) ([3]; Aufwandmenge 4 kg/ha): 1
Zustand der Pflanzen (EWRC Bewertungsschema) ([4]; Aufwandmenge 2 kg/ha): 1
Zustand der Pflanzen (EWRC Bewertungsschema) ([4]; Aufwandmenge 4 kg/ha): 1
Zustand der Pflanzen (EWRC Bewertungsschema) ([5]; Aufwandmenge 2 kg/ha): 3
Zustand der Pflanzen (EWRC Bewertungsschema) ([5]; Aufwandmenge 4 kg/ha): 1
Zustand der Pflanzen (EWRC Bewertungsschema) ([6]; Aufwandmenge 2 kg/ha): 2
Zustand der Pflanzen (EWRC Bewertungsschema) ([6]; Aufwandmenge 4 kg/ha): 1
Zustand der Pflanzen (EWRC Bewertungsschema) ([7]; Aufwandmenge 2 kg/ha): 1
Zustand der Pflanzen (EWRC Bewertungsschema) ([7]; Aufwandmenge 4 kg/ha): 1
Zustand der Pflanzen (EWRC Bewertungsschema) ([8]; Aufwandmenge 2 kg/ha): 1
Zustand der Pflanzen (EWRC Bewertungsschema) ([8]; Aufwandmenge 4 kg/ha): 1
Zustand der Pflanzen (EWRC Bewertungsschema) ([9]; Aufwandmenge 2 kg/ha): 2
Zustand der Pflanzen (EWRC Bewertungsschema) ([9]; Aufwandmenge 4 kg/ha): 1
Selektive herbizide Wirkung (rating) ([10]; 1 kg/ha): 3
Selektive herbizide Wirkung (rating) ([10]; 2 kg/ha): 1
Selektive herbizide Wirkung (rating) ([11]; 1 kg/ha): 5
Selektive herbizide Wirkung (rating) ([11]; 2 kg/ha): 3
Selektive herbizide Wirkung (rating) ([12]; 1 kg/ha): 4
Selektive herbizide Wirkung (rating) ([12]; 2 kg/ha): 3
Selektive herbizide Wirkung (rating) ([13]; 1 kg/ha): 7
Selektive herbizide Wirkung (rating) ([13]; 2 kg/ha): 7
Selektive herbizide Wirkung (rating) ([14]; 1 kg/ha): 4
Selektive herbizide Wirkung (rating) ([14]; 2 kg/ha): 3
